Laboratory results from US20250368652A1, “MICROBIOCIDAL BICYCLIC HETEROCYCLIC CARBOXAMIDE DERIVATIVES” (SYNGENTA CROP PROTECTION AG, priority 2022, published 2025).

Columns and labels:
Alternaria solani = Alternaria solani / tomato / leaf disc (early blight); assay type: in vivo; details: 200 ppm; tomato leaf disks cv. Baby, inoculated 2 days after application; compared to untreated control
Procedure: Leaf disks or leaf segments of various plant species are cut from plants grown in a greenhouse. The cut leaf disks or segments are placed in multiwell plates (24-well format) onto water agar. The leaf disks are sprayed with a test solution before (preventative) or after (curative) inoculation. Compounds to be tested are prepared as DMSO solutions (max. 10 mg/mL) which are diluted to the appropriate concentration with 0.025% Tween20 just before spraying. The inoculated leaf disks or segments are incubated under defined conditions (temperature, relative humidity, light, etc.) according to the respective test system. A single evaluation of disease level is carried out 3 to 14 days after inoculation, depending on the pathosystem. Percent disease control relative to the untreated check leaf disks or segments is then calculated. Tomato leaf disks cv. Baby are placed on agar in multiwell plates (24-well format) and sprayed with the formulated test compound diluted in water. The leaf disks are inoculated with a spore suspension of the fungus 2 days after application. The inoculated leaf disks are incubated at 23° C./21° C.

[1] = system: Botryotinia fuckeliana (Botrytis cinerea); assay: Botryotinia fuckeliana (Botrytis cinerea) / liquid culture (gray mould); assay type: cell-based; details: liquid culture (Vogels broth), growth inhibition photometrically 3-4 days after application, compared to untreated control
Procedure: (§1) Mycelia fragments or conidia suspensions of a fungus prepared either freshly from liquid cultures of the fungus or from cryogenic storage, are directly mixed into nutrient broth. DMSO solutions of the test compound (max. 10 mg/mL) are diluted with 0.025% Tween20 by a factor of 50 and 10 μL of this solution is pipetted into a microtiter plate (96-well format). The nutrient broth containing the fungal spores/mycelia fragments is then added to give an end concentration of the tested compound. The test plates are incubated in the dark at 24° C. and 96% relative humidity. The inhibition of fungal growth is determined photometrically after 2 to 7 days, depending on the pathosystem, and percent antifungal activity relative to the untreated check is calculated. Conidia of the fungus from cryogenic storage are directly mixed into nutrient broth (Vogels broth). After placing a (DMSO) solution of test compound into a microtiter plate (96-well format), the nutrient broth containing the fungal spores is added. The test plates are incubated at 24° C. and the inhibition of growth is determined photometrically 3-4 days after application.

[2] = system: Glomerella lagenarium (Colletotrichum lagenarium); assay: Glomerella lagenarium (Colletotrichum lagenarium) / liquid culture (anthracnose); assay type: cell-based; details: Colletotrichum orbiculare, liquid culture (PDB), growth inhibition photometrically 3-4 days after application, compared to untreated control
Procedure: as §1, with “nutrient broth (PDB potato dextrose broth). After” for “nutrient broth (Vogels broth). After”, “growth is measured photometrically 3-4” for “growth is determined photometrically 3-4”

Pyrenophora teres = Pyrenophora teres / barley / leaf disc preventative (net blotch); assay type: in vivo; details: 200 ppm, barley leaf segments cv. Hasso, inoculated 2 days after application, compared to untreated control

## Cc1cc2ncc(Oc3cccc(C4CC4)c3)c(C(=O)NCC(F)c3ccc(Cl)cc3Cl)n2n1 (stereo not shown) [Compound P-1.13, 6-(3-cyclopropylphenoxy)-N-[2-(2,4-dichlorophenyl)-2-fluoro-ethyl]-2-methyl-pyrazolo[1,5-a]pyrimidine-7-carboxamide]
Alternaria solani
  control of Alternaria solani: at least 80%
[1]
  inhibition of growth at 20 ppm: ≥ 80%
[2]
  inhibition of growth at 20 ppm: ≥ 80%
Pyrenophora teres
  control of Pyrenophora teres: at least 80%
